Source: patent publication US8178506B2, “Oligomeric compounds and compositions for use in modulation of small non-coding RNAs” (Regulus Therapeutics Inc., priority 2003, dated 2012)
In the oligonucleotide strings, read from the 5' end, every base follows the letter of its sugar. An asterisk marks phosphorothioate; unmarked linkages are phosphodiester. Other units and linkages are bracketed, terminal groups are in braces. A string of capitals states the bases alone. e = 2'-O-(2-methoxyethyl) (MOE); [5mC] = 5-methylcytosine; d = 2'-deoxy (DNA)

Test system: T47D cells
Assay: Caspase-3 activity assay (apoptosis) in T47D cells
Conditions: T47D cells, 48 hours; for Fold Increase over UTC (caspase-3 activity, apoptosis): 200 nM oligomeric compound; for Fold Increase over UTC (caspase activity): 200 nM, relative to untreated control

Substance: 328408 (antisense eT*eA*eG*eA*e[5mC]*dA*dA*dA*dA*dA*d[5mC]*dA*dG*dA*d[5mC]*eT*e[5mC]*eT*eG*eA) [compound 328408]
- Fold Increase over UTC (caspase-3 activity, apoptosis) (experiment of Table 10): 0.9 fold

Substance: 328409 (antisense eG*e[5mC]*eT*eA*eG*dT*dG*dA*d[5mC]*dA*dG*dG*dT*dG*d[5mC]*eA*eG*eA*e[5mC]*eA) [compound 328409]
- Fold Increase over UTC (caspase-3 activity, apoptosis) (experiment of Table 10): 0.7 fold

Substance: 328410 (antisense eG*eG*eG*e[5mC]*e[5mC]*dT*dA*dT*d[5mC]*d[5mC]*dA*dA*dA*dG*dT*eG*eA*e[5mC]*eA*eG) [compound 328410]
- Fold Increase over UTC (caspase-3 activity, apoptosis) (experiment of Table 11): 1.5 fold

Substance: 328411 (antisense eT*eA*e[5mC]*e[5mC]*eT*d[5mC]*dT*dG*d[5mC]*dA*dG*dT*dA*dT*dT*e[5mC]*eT*eA*e[5mC]*eA) [compound 328411]
- Fold Increase over UTC (caspase-3 activity, apoptosis) (experiment of Table 11): 0.8 fold

Substance: 328412 (antisense eT*eT*eT*eA*e[5mC]*dT*d[5mC]*dA*dT*dA*d[5mC]*d[5mC]*dT*d[5mC]*dG*e[5mC]*eA*eA*e[5mC]*e[5mC]) [compound 328412]
- Fold Increase over UTC (caspase-3 activity, apoptosis) (experiment of Table 12): 1.2 fold

Substance: 328413 (antisense eA*eA*eT*eT*eG*dT*dA*dT*dG*dA*d[5mC]*dA*dT*dT*dA*eA*eA*eT*e[5mC]*eA) [compound 328413]
- Fold Increase over UTC (caspase-3 activity, apoptosis) (experiment of Table 11): 0.8 fold

Substance: 328414 (antisense e[5mC]*eT*eT*e[5mC]*eA*dA*dG*dT*dG*d[5mC]*dA*dG*d[5mC]*d[5mC]*dG*eT*eA*eG*eG*e[5mC]) [compound 328414]
- Fold Increase over UTC (caspase-3 activity, apoptosis) (experiment of Table 12): 0.9 fold

Substance: 328416 (antisense eA*e[5mC]*eA*eT*eT*dG*d[5mC]*dT*dA*dT*d[5mC]*dA*dT*dA*dA*eG*eA*eG*e[5mC]*eT) [compound 328416]
- Fold Increase over UTC (caspase activity): 0.9

Substance: 328418 (antisense eA*eG*eT*eG*eT*d[5mC]*dT*d[5mC]*dA*dT*d[5mC]*dG*d[5mC]*dA*dA*eA*e[5mC]*eT*eT*eA) [compound 328418]
- Fold Increase over UTC (caspase-3 activity, apoptosis) (experiment of Table 12): 1.0 fold

Substance: 328420 (antisense eG*e[5mC]*eT*eG*eA*dT*dT*dA*d[5mC]*dG*dA*dA*dA*dG*dA*e[5mC]*eA*eG*eG*eA) [compound 328420]
- Fold Increase over UTC (caspase activity): 1.0

Substance: 328422 (antisense eG*eA*eG*eG*eA*dT*dG*dT*d[5mC]*dT*dG*dT*dG*dA*dA*eT*eA*eG*e[5mC]*e[5mC]) [compound 328422]
- Fold Increase over UTC (caspase-3 activity, apoptosis) (experiment of Table 10): 1.0 fold

Substance: 328425 (antisense eG*eA*e[5mC]*e[5mC]*eT*dG*d[5mC]*dT*dA*d[5mC]*dT*d[5mC]*dA*d[5mC]*dT*e[5mC]*eT*e[5mC]*eG*eT) [compound 328425]
- Fold Increase over UTC (caspase-3 activity, apoptosis) (experiment of Table 10): 0.8 fold

Substance: 328426 (antisense eG*eG*eT*eT*eG*dG*d[5mC]*d[5mC]*dG*d[5mC]*dA*dG*dA*d[5mC]*dT*e[5mC]*eG*eT*eA*e[5mC]) [compound 328426]
- Fold Increase over UTC (caspase-3 activity, apoptosis) (experiment of Table 11): 1.3 fold

Substance: 328427 (antisense eG*eA*eT*eG*eT*d[5mC]*dA*d[5mC]*dT*dG*dA*dG*dG*dA*dA*eA*eT*e[5mC]*eA*e[5mC]) [compound 328427]
- Fold Increase over UTC (caspase-3 activity, apoptosis) (experiment of Table 11): 0.8 fold

Substance: 328430 (antisense e[5mC]*e[5mC]*eG*eG*e[5mC]*dT*dA*dT*dT*dG*dA*dG*dT*dT*dA*eT*eG*eT*eA*e[5mC]) [compound 328430]
- Fold Increase over UTC (caspase-3 activity, apoptosis) (experiment of Table 12): 1.3 fold

Substance: 328431 (antisense eA*e[5mC]*e[5mC]*eT*e[5mC]*dT*d[5mC]*dA*dG*dG*dA*dA*dG*dA*d[5mC]*eG*eG*eA*e[5mC]*eT) [compound 328431]
- Fold Increase over UTC (caspase-3 activity, apoptosis) (experiment of Table 10): 0.9 fold

Substance: 328432 (antisense eG*eA*eG*e[5mC]*eA*dT*dG*d[5mC]*dA*dA*d[5mC]*dA*d[5mC]*dT*d[5mC]*eT*eG*eT*eG*e[5mC]) [compound 328432]
- Fold Increase over UTC (caspase-3 activity, apoptosis) (experiment of Table 12): 0.6 fold

Substance: 328433 (antisense e[5mC]*e[5mC]*eT*e[5mC]*e[5mC]*dT*dT*dG*dT*dG*dG*dG*d[5mC]*dA*dA*eA*eA*eT*e[5mC]*e[5mC]) [compound 328433]
- Fold Increase over UTC (caspase activity): 1.0

Substance: 328435 (antisense eT*e[5mC]*eT*eA*eA*dG*dG*dG*dG*dT*d[5mC]*dA*d[5mC]*dA*dG*eA*eA*eG*eG*eT) [compound 328435]
- Fold Increase over UTC (caspase-3 activity, apoptosis) (experiment of Table 11): 1.3 fold

Substance: 328637 (eG*eG*eT*eT*e[5mC]*d[5mC]*dT*dA*dA*dT*dT*dA*dA*dA*d[5mC]*eA*eA*e[5mC]*e[5mC]*e[5mC]; antisense) [compound 328637]
- Fold Increase over UTC (caspase-3 activity, apoptosis) (experiment of Table 11): 1.0 fold

Substance: 328638 (e[5mC]*e[5mC]*eG*eA*eG*dG*dG*dT*d[5mC]*dT*dA*dA*d[5mC]*d[5mC]*d[5mC]*eA*eG*e[5mC]*e[5mC]*e[5mC]; antisense) [compound 328638]
- Fold Increase over UTC (caspase-3 activity, apoptosis) (experiment of Table 11): 0.8 fold

Substance: 328639 (eG*eA*e[5mC]*eT*eA*d[5mC]*dT*dG*dT*dT*dG*dA*dG*dA*dG*eG*eA*eA*e[5mC]*eA; antisense) [compound 328639]
- Fold Increase over UTC (caspase-3 activity, apoptosis) (experiment of Table 11): 0.8 fold

Substance: 328640 (eT*e[5mC]*eT*e[5mC]*e[5mC]*dT*dT*dG*dG*dG*dT*dG*dT*d[5mC]*d[5mC]*eT*e[5mC]*e[5mC]*eT*e[5mC]; antisense) [compound 328640]
- Fold Increase over UTC (caspase-3 activity, apoptosis) (experiment of Table 12): 0.9 fold

Substance: 328641 (eT*eG*e[5mC]*eT*eG*dA*d[5mC]*dT*dG*d[5mC]*dT*d[5mC]*dG*d[5mC]*d[5mC]*e[5mC]*eT*eT*eG*e[5mC]; antisense) [compound 328641]
- Fold Increase over UTC (caspase-3 activity, apoptosis) (experiment of Table 12): 1.1 fold

Substance: 328642 (eA*e[5mC]*eT*e[5mC]*e[5mC]*d[5mC]*dA*dG*dG*dG*dT*dG*dT*dA*dA*e[5mC]*eT*e[5mC]*eT*eA; antisense) [compound 328642]
- Fold Increase over UTC (caspase-3 activity, apoptosis) (experiment of Table 12): 1.0 fold

Substance: 328643 (e[5mC]*eA*eT*eG*eA*dA*dG*dA*dA*dA*dG*dA*d[5mC]*dT*dG*eT*eA*eG*e[5mC]*e[5mC]; antisense) [compound 328643]
- Fold Increase over UTC (caspase activity): 0.9

Substance: 328645 (eT*eG*e[5mC]*eT*e[5mC]*dA*dG*d[5mC]*d[5mC]*dA*dG*d[5mC]*d[5mC]*d[5mC]*d[5mC]*eA*eT*eT*e[5mC]*eT) [compound 328645]
- Fold Increase over UTC (caspase-3 activity, apoptosis) (experiment of Table 11): 2.2 fold

Substance: 328646 (eG*e[5mC]*eT*eT*eT*dT*dA*dG*dA*dA*d[5mC]*d[5mC]*dA*d[5mC]*dT*eG*e[5mC]*e[5mC]*eT*e[5mC]; antisense) [compound 328646]
- Fold Increase over UTC (caspase-3 activity, apoptosis) (experiment of Table 10): 1.1 fold

Substance: 328648 (eA*e[5mC]*eT*eG*eA*dT*dT*d[5mC]*dA*dA*dG*dA*dG*d[5mC]*dT*eT*eT*eG*eT*eA; antisense) [compound 328648]
- Fold Increase over UTC (caspase activity): 1.1

Substance: 328650 (eA*eA*eT*e[5mC]*e[5mC]*dA*dT*dT*dG*dA*dA*dG*dA*dG*dG*e[5mC]*eG*eA*eT*eT; antisense) [compound 328650]
- Fold Increase over UTC (caspase-3 activity, apoptosis) (experiment of Table 12): 0.8 fold

Substance: 328652 (eG*eG*e[5mC]*e[5mC]*eT*dA*dA*dT*dA*dT*d[5mC]*d[5mC]*d[5mC]*dT*dA*e[5mC]*e[5mC]*e[5mC]*e[5mC]*eA; antisense) [compound 328652]
- Fold Increase over UTC (caspase-3 activity, apoptosis) (experiment of Table 10): 1.2 fold

Substance: 328653 (eG*eT*eG*eT*eT*d[5mC]*dA*dG*dA*dA*dA*d[5mC]*d[5mC]*d[5mC]*dA*eG*eG*e[5mC]*e[5mC]*e[5mC]; antisense) [compound 328653]
- Fold Increase over UTC (caspase-3 activity, apoptosis) (experiment of Table 11): 1.1 fold

Substance: 328654 (eT*e[5mC]*e[5mC]*eA*eG*dG*dA*dT*dG*d[5mC]*dA*dA*dA*dA*dG*e[5mC]*eA*e[5mC]*eG*eA; antisense) [compound 328654]
- Fold Increase over UTC (caspase-3 activity, apoptosis) (experiment of Table 11): 1.0 fold

Substance: 328655 (eT*eA*e[5mC]*eA*eA*d[5mC]*dG*dG*d[5mC]*dA*dT*dT*dG*dT*d[5mC]*e[5mC]*eT*eG*eA*eA; antisense) [compound 328655]
- Fold Increase over UTC (caspase-3 activity, apoptosis) (experiment of Table 11): 0.7 fold

Substance: 328656 (eT*eT*eT*e[5mC]*eA*dG*dG*d[5mC]*dT*d[5mC]*dA*d[5mC]*d[5mC]*dT*d[5mC]*e[5mC]*e[5mC]*e[5mC]*eA*eG; antisense) [compound 328656]
- Fold Increase over UTC (caspase activity): 1.1

Substance: 328657 (eA*eA*eA*eA*eA*dT*dA*dA*dT*d[5mC]*dT*d[5mC]*dT*dG*d[5mC]*eA*e[5mC]*eA*eG*eG; antisense) [compound 328657]
- Fold Increase over UTC (caspase-3 activity, apoptosis) (experiment of Table 10): 0.8 fold

Substance: 328658 (eA*eG*eA*eA*eT*dG*dA*dG*dT*dT*dG*dA*d[5mC]*dA*dT*eA*e[5mC]*e[5mC]*eA*eA; antisense) [compound 328658]
- Fold Increase over UTC (caspase-3 activity, apoptosis) (experiment of Table 12): 1.2 fold

Substance: 328672 (eA*eA*eG*eG*e[5mC]*dT*dT*dT*dT*dT*dG*d[5mC]*dT*d[5mC]*dA*eA*eG*eG*eG*e[5mC]; antisense) [compound 328672]
- Fold Increase over UTC (caspase-3 activity, apoptosis) (experiment of Table 10): 0.9 fold

Substance: 328689 (eT*eA*e[5mC]*eA*eA*dT*dT*dT*dG*dG*dG*dA*dG*dT*d[5mC]*e[5mC]*eT*eG*eA*eA; antisense) [compound 328689]
- Fold Increase over UTC (caspase-3 activity, apoptosis) (experiment of Table 11): 0.8 fold

Substance: 328690 (eG*e[5mC]*e[5mC]*eT*e[5mC]*d[5mC]*dT*dT*d[5mC]*dA*dT*dA*dT*dA*dT*eT*e[5mC]*eT*e[5mC]*eA; antisense) [compound 328690]
- Fold Increase over UTC (caspase-3 activity, apoptosis) (experiment of Table 12): 0.8 fold

Substance: 328692 (eT*eT*eG*eT*eA*dT*dG*dG*dA*d[5mC]*dA*dT*dT*dT*dA*eA*eA*eT*e[5mC]*eA; antisense) [compound 328692]
- Fold Increase over UTC (caspase activity): 1.2

Substance: 328693 (eT*eT*eT*eG*eA*dT*dT*dT*dT*dA*dA*dT*dT*d[5mC]*d[5mC]*eA*eA*eA*e[5mC]*eT; antisense) [compound 328693]
- Fold Increase over UTC (caspase-3 activity, apoptosis) (experiment of Table 12): 1.0 fold

Substance: 328694 (e[5mC]*eA*eA*eA*e[5mC]*dG*dG*dT*dA*dA*dG*dA*dT*dT*dT*eG*e[5mC]*eA*eG*eA; antisense) [compound 328694]
- Fold Increase over UTC (caspase-3 activity, apoptosis) (experiment of Table 10): 0.8 fold

Substance: 328695 (eG*eG*eA*eT*eT*dT*dA*dA*dA*d[5mC]*dG*dG*dT*dA*dA*eA*e[5mC]*eA*eT*e[5mC]; antisense) [compound 328695]
- Fold Increase over UTC (caspase-3 activity, apoptosis) (experiment of Table 11): 0.8 fold
